In ChEMBL document CHEMBL3739284, “Anteaglonialides A-F and Palmarumycins CE(1)-CE(3) from Anteaglonium sp. FL0768, a Fungal Endophyte of the Spikemoss Selaginella arenicola” (J Nat Prod, 2015):

Experiment: Cytotoxicity against human CHP100 cells after 24 hrs by MTT assay
Format: functional, cell-based
Details: CHP100, 24 h

SMILES	IC50 [nM]
O=C1C=C[C@H]2O[C@H]3CC(=O)[C@@H]1[C@@H]2C31Oc2cccc3cccc(c23)O1	400
O=C1C=CC2(Oc3cccc4cccc(c34)O2)[C@H]([C@H]2CCC(=O)O2)C1	1400
O=C1C=CC2(Oc3cccc4cccc(c34)O2)c2cccc(O)c21	1600
